Data as given in patent publication US20260262643A1, “HERBICIDAL BENZOXAZINES” (FMC CORPORATION, priority 2022, published 2026).

Experiments:
blackgrass [1] = assay: Test A preemergence; assay type: in vivo, Alopecurus myosuroides
Method in brief: (§1)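 Greenhouse pot test, 10 days. Compound (non-phytotoxic solvent, surfactant) sprayed on soil at seeding or on seedlings at one- to two-leaf stage. Visual injury rated 0–100 against untreated plants.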

corn [2] = assay: Test A preemergence; assay type: in vivo, Zea mays
From the text: (§2) Seeds of plant species selected from barnyardgrass (Echinochloa crusgalli), blackgrass (Alopecurus myosuroides), corn (Zea mays), foxtail, giant (giant foxtail, Setaria faberi), goosegrass (Eleusine indica), kochia (Bassia scoparia), oat, wild (wild oat, Avena fatua), pigweed, palmer (palmer amaranth, palmer pigweed, Amaranthus palmeri), Pigweed, Redroot (redroot pigweed, Amaranthus retroflexus), ragweed (common ragweed, Ambrosia artemisiifolia), ryegrass, Italian (italian ryegrass, Lolium multiflorum), soybean (Glycine max), and wheat (Triticum aestivum) were planted into a blend of loam soil and sand and treated preemergence with a directed soil spray using test chemicals formulated in a non-phytotoxic solvent mixture which included a surfactant. At the same time, plants selected from these crops and weed species and also galium (catchweed bedstraw, Galium aparine) and horseweed (Erigeron canadensis) were planted in pots containing the same blend of loam soil and sand and treated with postemergence applications of test chemicals formulated in the same manner. Plants ranged in height from 2 to 10 cm and were in the one- to two-leaf stage for the postemergence treatment. Treated plants and untreated controls were maintained in a greenhouse for 10 days, after which time all treated plants were compared to untreated controls and visually evaluated for injury. Plant response ratings, summarized in Table A, are based on a 0 to 100 scale where 0 is no effect and 100 is complete control. A dash (-) response means no test result.

foxtail, giant [3] = assay: Test A preemergence; assay type: in vivo, Setaria faberi
Method in brief: as §1

goosegrass [4] = assay: Test A preemergence; assay type: in vivo, Eleusine indica
Method in brief: as §1

kochia [5] = assay: Test A preemergence; assay type: in vivo, Bassia scoparia
Method in brief: as §1

oat, wild [6] = assay: Test A preemergence; assay type: in vivo, Avena fatua
From the text: as §2

pigweed, palmer [7] = assay: Test A preemergence; assay type: in vivo, Amaranthus palmeri
Method in brief: as §1

ragweed [8] = assay: Test A preemergence; assay type: in vivo, Ambrosia artemisiifolia
Method in brief: as §1

ryegrass, Italian [9] = assay: Test A preemergence; assay type: in vivo, Lolium multiflorum
Method in brief: as §1

soybean [10] = assay: Test A preemergence; assay type: in vivo, Glycine max
From the text: as §2

wheat [11] = assay: Test A preemergence; assay type: in vivo, Triticum aestivum
From the text: as §2

blackgrass [12] = assay: Test A postemergence; assay type: in vivo, Alopecurus myosuroides
Method in brief: as §1

corn [13] = assay: Test A postemergence; assay type: in vivo, Zea mays
From the text: as §2

foxtail, giant [14] = assay: Test A postemergence; assay type: in vivo, Setaria faberi
Method in brief: as §1

goosegrass [15] = assay: Test A postemergence; assay type: in vivo, Eleusine indica
Method in brief: as §1

kochia [16] = assay: Test A postemergence; assay type: in vivo, Bassia scoparia
Method in brief: as §1

oat, wild [17] = assay: Test A postemergence; assay type: in vivo, Avena fatua
From the text: as §2

pigweed, palmer [18] = assay: Test A postemergence; assay type: in vivo, Amaranthus palmeri
Method in brief: as §1

ragweed [19] = assay: Test A postemergence; assay type: in vivo, Ambrosia artemisiifolia
Method in brief: as §1

ryegrass, Italian [20] = assay: Test A postemergence; assay type: in vivo, Lolium multiflorum
Method in brief: as §1

soybean [21] = assay: Test A postemergence; assay type: in vivo, Glycine max
From the text: as §2

wheat [22] = assay: Test A postemergence; assay type: in vivo, Triticum aestivum
From the text: as §2

galium = assay: Test A postemergence; assay type: in vivo, Galium aparine
Method in brief: as §1

barnyardgrass = assay: Test B flooded paddy test; assay type: in vivo, Echinochloa crus-galli; conditions: 250 g ai/ha, Flood, 13 days, 0 to 100 scale (0 no effect, 100 complete control)
Method in brief: (§3)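 Percent weed or crop control, judged by eye on a 0–100 scale 13 days post-treatment, reflects compound added to a 3 cm flood maintained over 2-leaf plants in the greenhouse. Missing entries are marked with a dash.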

ducksalad = assay: Test B flooded paddy test; assay type: in vivo, Heteranthera limosa; conditions: 250 g ai/ha, Flood, 13 days, 0 to 100 scale (0 no effect, 100 complete control)
Method in brief: as §3

rice = assay: Test B flooded paddy test; assay type: in vivo, Oryza sativa; conditions: 250 g ai/ha, Flood, 13 days, 0 to 100 scale (0 no effect, 100 complete control)
Method in brief: as §3

sedge, umbrella = assay: Test B flooded paddy test; assay type: in vivo, Cyperus difformis; conditions: 250 g ai/ha, Flood, 13 days, 0 to 100 scale (0 no effect, 100 complete control)
Method in brief: as §3

[23] = 125 g ai/ha, visual injury after 10 days, 0 to 100 scale, 0 is no effect, 100 is complete control
[24] = 500 g ai/ha, 0 to 100 scale (0 no effect, 100 complete control), 10 days
[25] = 125 g ai/ha, postemergence, 10 days, visual injury, 0 to 100 scale (0 no effect, 100 complete control)
[26] = 500 g ai/ha, Postemergence, 0 to 100 scale

C[C@H]1CN(C(=O)c2cccc(-n3cncn3)c2)c2cccc(C(F)(F)F)c2O1 [Compound 47]
Plant response rating, Blackgrass (blackgrass [1]; [23]): 70
Plant response rating, Blackgrass (blackgrass [1]; [24]): 90
Plant response rating, Corn (corn [2]; [23]): 0
Plant response rating, Corn (corn [2]; [24]): 0
Plant response rating, Foxtail, Giant (foxtail, giant [3]; [23]): 60
Plant response rating, Foxtail, Giant (foxtail, giant [3]; [24]): 90
Plant response rating, Goosegrass (goosegrass [4]; [23]): 80
Plant response rating, Goosegrass (goosegrass [4]; [24]): 100
Plant response rating, Kochia (kochia [5]; [23]): 0
Plant response rating, Kochia (kochia [5]; [24]): 50
Plant response rating, Oat, Wild (oat, wild [6]; [23]): 10
Plant response rating, Oat, Wild (oat, wild [6]; [24]): 30
Plant response rating, Pigweed, Palmer (pigweed, palmer [7]; [23]): 60
Plant response rating, Pigweed, Palmer (pigweed, palmer [7]; [24]): 90
Plant response rating, Ragweed (ragweed [8]; [23]): 0
Plant response rating, Ragweed (ragweed [8]; [24]): 0
Plant response rating, Ryegrass, Italian (ryegrass, Italian [9]; [23]): 80
Plant response rating, Ryegrass, Italian (ryegrass, Italian [9]; [24]): 90
Plant response rating, Soybean (soybean [10]; [23]): 0
Plant response rating, Soybean (soybean [10]; [24]): 40
Plant response rating, Wheat (wheat [11]; [23]): 0
Plant response rating, Wheat (wheat [11]; [24]): 20
Plant response rating, Blackgrass (blackgrass [12]; [25]): 10
Plant response rating, Blackgrass (blackgrass [12]; [26]): 60
Plant response rating, Corn (corn [13]; [25]): 30
Plant response rating, Corn (corn [13]; [26]): 60
Plant response rating, Foxtail, Giant (foxtail, giant [14]; [25]): 30
Plant response rating, Foxtail, Giant (foxtail, giant [14]; [26]): 90
Plant response rating, Goosegrass (goosegrass [15]; [25]): 0
Plant response rating, Goosegrass (goosegrass [15]; [26]): 20
Plant response rating, Kochia (kochia [16]; [25]): 50
Plant response rating, Kochia (kochia [16]; [26]): 90
Plant response rating, Oat, Wild (oat, wild [17]; [25]): 10
Plant response rating, Oat, Wild (oat, wild [17]; [26]): 30
Plant response rating, Pigweed, Palmer (pigweed, palmer [18]; [25]): 70
Plant response rating, Pigweed, Palmer (pigweed, palmer [18]; [26]): 90
Plant response rating, Ragweed (ragweed [19]; [25]): 0
Plant response rating, Ragweed (ragweed [19]; [26]): 0
Plant response rating, Ryegrass, Italian (ryegrass, Italian [20]; [25]): 30
Plant response rating, Ryegrass, Italian (ryegrass, Italian [20]; [26]): 90
Plant response rating, Soybean (soybean [21]; [25]): 80
Plant response rating, Soybean (soybean [21]; [26]): 100
Plant response rating, Wheat (wheat [22]; [25]): 20
Plant response rating, Wheat (wheat [22]; [26]): 40
Plant response rating, Galium (galium; [25]): 60
Plant response rating, Galium (galium; [26]): 90
Plant response rating, Barnyardgrass (barnyardgrass): 0
Plant response rating, Ducksalad (ducksalad): 0
Plant response rating, Rice (rice): 0
Plant response rating, Sedge, Umbrella (sedge, umbrella): 0
